In brackets after ≈: the same amount, converted by molar mass.
Legend:
Type in all cases: cell-based
Streptococcus pneumoniae [1] = assay: MIC by two-fold serial agar dilution, Sensitivity Disk agar-N (Kitasato isolates); details: for MIC90: read-out: MIC90; for MIC: read-out: MIC Range
[2] = system: Staphylococcus epidermidis; assay: MIC by NCCLS broth microdilution, 1100 Japanese clinical isolates 1997-1998; details: for MIC50 / MIC90: Staphylococcus epidermidis
Streptococcus pneumoniae [3] = assay: as above; details: for MIC50 / MIC90 / MIC: Streptococcus pneumoniae; for MIC50: read-out: MIC50; for MIC90: read-out: MIC90; for MIC: Streptococcus pneumoniae quinolone resistant
Streptococcus pyogenes = assay: as above; details: Streptococcus pyogenes (n=51)
Proteus vulgaris = assay: as above
Providencia rettgeri = assay: as above
[4] = Staphylococcus epidermidis oxacillin susceptible (n=35)
[5] = Staphylococcus epidermidis oxacillin resistant (n=43)
[6] = Streptococcus pneumoniae amoxicillin resistant (n=40)
[7] = Streptococcus pneumoniae amoxicillin susceptible (n=35)
[8] = Streptococcus pneumoniae erythromycin resistant (n=34)
[9] = Streptococcus pneumoniae erythromycin susceptible (n=11)

`NC1CCN(c2nc3c(cc2F)c(=O)c(C(=O)O)cn3-c2ccc(F)cc2F)C1` (stereo not shown) [Tosufloxacin, tosufloxacin] showed an MIC50 (Streptococcus pneumoniae [1]; Ciprofloxacin-susceptible (94)) of 0.125 µg/mL (≈ 0.309 µM), an MIC50 (Streptococcus pneumoniae [1]; Erythromycin-resistant (37)) of 0.125 µg/mL (≈ 0.309 µM) and an MIC50 (Streptococcus pneumoniae [1]; Minocycline-resistant (37)) of 0.125 µg/mL (≈ 0.309 µM). It also gave an MIC50 (Streptococcus pneumoniae [1]; Streptococcus pneumoniae) of 0.125 µg/mL (≈ 0.309 µM), an MIC90 (Streptococcus pneumoniae [1]; Streptococcus pneumoniae, 18 h, Ciprofloxacin-resistant (21), ciprofloxacin MIC ≥8 µg/ml) of 8 µg/mL (≈ 19.8 µM) and an MIC (Streptococcus pneumoniae [1]; Streptococcus pneumoniae, 18 h, Ciprofloxacin-resistant (21)) of 0.25 to 16 µg/mL (≈ 0.618 to 39.6 µM). It also gave an MIC (Streptococcus pneumoniae [1]; Streptococcus pneumoniae, 18 h, Ciprofloxacin-susceptible (94)) of 0.063 to 0.5 µg/mL (≈ 0.156 to 1.24 µM), an MIC (Streptococcus pneumoniae [1]; Streptococcus pneumoniae, 18 h, Erythromycin-resistant (37)) of 0.063 to 4 µg/mL (≈ 0.156 to 9.89 µM) and an MIC (Streptococcus pneumoniae [1]; Streptococcus pneumoniae, 18 h, Minocycline-resistant (37)) of 0.063 to 4 µg/mL (≈ 0.156 to 9.89 µM). For the same compound, the MIC (Streptococcus pneumoniae [1]; Streptococcus pneumoniae, 18 h, Penicillin-resistant (19)) was 0.063 to 0.5 µg/mL (≈ 0.156 to 1.24 µM), the MIC50 (Streptococcus pneumoniae [1]; Streptococcus pneumoniae, Ciprofloxacin-resistant (21), read-out: MIC50) was 4 µg/mL (≈ 9.89 µM) and the MIC90 (Streptococcus pneumoniae [1]; Streptococcus pneumoniae, Ciprofloxacin-susceptible (94)) was 0.25 µg/mL (≈ 0.618 µM). It also gave an MIC90 (Streptococcus pneumoniae [1]; Streptococcus pneumoniae, Erythromycin-resistant (37)) of 0.5 µg/mL (≈ 1.24 µM), an MIC90 (Streptococcus pneumoniae [1]; Streptococcus pneumoniae, Minocycline-resistant (37)) of 0.5 µg/mL (≈ 1.24 µM) and an MIC90 (Streptococcus pneumoniae [1]; Streptococcus pneumoniae, Penicillin-resistant (19)) of 0.25 µg/mL (≈ 0.618 µM). The “MIC Range” value [2, 4] was 0.032 to 16 µg/mL, the MIC50 [2, 5] was 8 µg/mL (≈ 19.8 µM) and the MIC90 [2, 5] was greater than 16 µg/mL. For the same compound, the MIC50 [2, 4] was 0.063 µg/mL (≈ 0.156 µM), the MIC90 [2, 4] was 4 µg/mL (≈ 9.89 µM) and the “MIC Range” value (Streptococcus pneumoniae [3]; [6]) was 0.063 to 4 µg/mL. For the same compound, the “MIC Range” value (Streptococcus pneumoniae [3]; [7]) was 0.125 to 2 µg/mL, the “MIC Range” value (Streptococcus pneumoniae [3]; [8]) was 0.063 to 4 µg/mL and the “MIC Range” value (Streptococcus pneumoniae [3]; [9]) was 0.125 to 0.25 µg/mL. The MIC50 (Streptococcus pneumoniae [3]; [6]) was 0.25 µg/mL (≈ 0.618 µM), the MIC90 (Streptococcus pneumoniae [3]; [6]) was 0.25 µg/mL (≈ 0.618 µM) and the MIC50 (Streptococcus pneumoniae [3]; [7]) was 0.25 µg/mL (≈ 0.618 µM). The MIC90 (Streptococcus pneumoniae [3]; [7]) was 0.5 µg/mL (≈ 1.24 µM), the MIC50 (Streptococcus pneumoniae [3]; [8]) was 0.25 µg/mL (≈ 0.618 µM) and the MIC90 (Streptococcus pneumoniae [3]; [8]) was 0.25 µg/mL (≈ 0.618 µM). For the same compound, the MIC50 (Streptococcus pneumoniae [3]; [9]) was 0.25 µg/mL (≈ 0.618 µM), the MIC90 (Streptococcus pneumoniae [3]; [9]) was 0.25 µg/mL (≈ 0.618 µM) and the MIC (Streptococcus pneumoniae [3]; strain TMS1) was 0.5 µg/mL (≈ 1.24 µM). The MIC (Streptococcus pneumoniae [3]; strain TMS2) was 8 µg/mL (≈ 19.8 µM), the MIC90 (Streptococcus pyogenes) was 1 µg/mL (≈ 2.47 µM) and the “MIC Range” value (Streptococcus pyogenes) was 0.063 to 1 µg/mL. The MIC50 (Streptococcus pyogenes; read-out: MIC50) was 0.25 µg/mL (≈ 0.618 µM), the MIC50 (Proteus vulgaris; Proteus vulgaris) was 0.125 µg/mL (≈ 0.309 µM) and the “MIC Range” value (Proteus vulgaris; Proteus vulgaris (n=25)) was 0.063 to 1 µg/mL. It also gave an MIC90 (Proteus vulgaris; Proteus vulgaris (n=25), read-out: MIC90) of 0.5 µg/mL (≈ 1.24 µM), an MIC50 (Providencia rettgeri; Providencia rettgeri) of 0.125 µg/mL (≈ 0.309 µM) and an MIC90 (Providencia rettgeri; Providencia rettgeri (n=12)) of 8 µg/mL (≈ 19.8 µM). The “MIC Range” value (Providencia rettgeri; Providencia rettgeri (n=12)) was 0.063 to 8 µg/mL.
